Assay results as given in the NIST ThermoML archive (doi:10.1016/j.jct.2014.09.020).

Columns and labels:
[1] = xn = mol fraction of the nth substance listed; conditions: Liquid, x1 = 1; for speed of sound: Frequency=4 MHz, Single path-length method; for mass density: Vibrating tube method
[2] = Liquid; for speed of sound: Frequency=4 MHz, Single path-length method; for mass density: Vibrating tube method

CCCCCCCCCCCCCCCC [hexadecane] + c1ccc2c(c1)CCCC2
[1]
Conditions	mass density, 100 kPa [kg/m3]	speed of sound, 100 kPa [m/s]	speed of sound, 5000 kPa [m/s]	speed of sound, 10000 kPa [m/s]	speed of sound, 15000 kPa [m/s]	speed of sound, 20000 kPa [m/s]	speed of sound, 25000 kPa [m/s]
313.15 K	759.55	1283	1311	1340	1366	1391	1416
323.15 K	752.64	1248	1278	1307	1335	1361	1387
333.15 K	745.73	1212	1242	1273	1301	1328	1354

CCCCCCCCCC [decane]
[2]
Conditions	mass density, 100 kPa [kg/m3]	speed of sound, 100 kPa [m/s]	speed of sound, 5000 kPa [m/s]	speed of sound, 10000 kPa [m/s]	speed of sound, 15000 kPa [m/s]	speed of sound, 20000 kPa [m/s]	speed of sound, 25000 kPa [m/s]
313.15 K	714.87	1177	1209	1243	1274	1303	1327
323.15 K	707.2	1139	1174	1207	1238	1269	1296
333.15 K	699.47	1099	1134	1171	1204	1234	1264

CCCCCCCCCC [decane] + c1ccc2c(c1)CCCC2
[1]
Conditions	mass density, 100 kPa [kg/m3]	speed of sound, 100 kPa [m/s]	speed of sound, 5000 kPa [m/s]	speed of sound, 10000 kPa [m/s]	speed of sound, 15000 kPa [m/s]	speed of sound, 20000 kPa [m/s]	speed of sound, 25000 kPa [m/s]
313.15 K	714.87	1177	1209	1243	1274	1303	1327
323.15 K	707.2	1139	1174	1207	1238	1269	1296
333.15 K	699.47	1099	1134	1171	1204	1234	1264

CCCCCCCCCCCCCCCC [hexadecane]
[2]
Conditions	mass density, 100 kPa [kg/m3]	speed of sound, 100 kPa [m/s]	speed of sound, 5000 kPa [m/s]	speed of sound, 10000 kPa [m/s]	speed of sound, 15000 kPa [m/s]	speed of sound, 20000 kPa [m/s]	speed of sound, 25000 kPa [m/s]
313.15 K	759.55	1283	1311	1340	1366	1391	1416
323.15 K	752.64	1248	1278	1307	1335	1361	1387
333.15 K	745.73	1212	1242	1273	1301	1328	1354

c1ccc2c(c1)CCCC2 [1,2,3,4-tetrahydronaphthalene]
[2]
Conditions	mass density, 100 kPa [kg/m3]	speed of sound, 100 kPa [m/s]	speed of sound, 5000 kPa [m/s]	speed of sound, 10000 kPa [m/s]	speed of sound, 15000 kPa [m/s]	speed of sound, 20000 kPa [m/s]	speed of sound, 25000 kPa [m/s]
313.15 K	952.93	1413	1434	1455	1475	1495	1513
323.15 K	944.99	1374	1397	1419	1439	1459	1480
333.15 K	937.04	1335	1359	1383	1402	1425	1445
